This is an account of results in patent publication US12440497B2, “Compositions and methods for enhancing Wnt signaling for treating cancer” (Massachusetts Institute of Technology, priority 2021, dated 2025).

One series has as its system wildtype colon organoids. Description: Wildtype colon organoid growth, resazurin viability assay. It counts as cell-based, Mouse and human. Particulars: for ranking by on-target vs off-target function in organoids: order: LY2090314, SAR502250, A-1070722, CHIR 99021; for growth of wildtype colon organoids: resazurin assay. The procedure: (§1) Mouse and human organoids were grown in standard organoid culture systems using MATRIGEL® and Advanced DMEM/F12 media with 5% fetal bovine serum, and GLUTAMAX® supplementation. Dose responses of the labeled drugs were applied to the organoid cultures and resazurin viability assays were performed after 4 days of culture. Relative growth is assessed by conversion of resazurin to resorufin and is shown on the y axis.
To further generalize the approach using different GSK3 inhibitors, two other compounds were identified which via GSK3 inhibition, induce Wnt responses in colon organoids. […] Using primary wildtype colon crypts, the capacity of SAR502250 to promote wildtype organoid growth was evaluated using a resazurin metabolic based assay.
Background: The colour change of resazurin is a common sign of viable cells or microbes.

Series [1] concerns organoids that harbor an APC mutation. As to the kind of experiment: Growth of APC-mutant colon cancer organoid genotypes, resazurin assay. It counts as cell-based. Conditions: at all concentrations; also with added KRAS, p53, SMAD4 mutations. The procedure:
as §1
Same as FIG. 1, but the genotype of the organoids tested vary instead of being wildtype, they contain the mutations as indicated in the figure description.

The test system of series [2] is Human colon cancers (colon tumor organoid lines). Description: Human colon tumor organoid dose response, resazurin. It counts as cell-based. Particulars: every human colon cancer, 4 days of culture. The procedure: Human colon cancers were collected from the operating room at MGH. Colon tumor organoids lines were generated from the resections and maintained in standard colon organoid culture conditions. Dose responses of LY2090314 were applied to the various human colon cancers and resazurin cell number counts were performed after 4 days of culture.

Series [3] concerns colon cancer organoids (AKPVT). Description: AKPVT colon cancer organoid growth, resazurin based assay. It counts as cell-based, mouse. Conditions: for inhibition of AKPVT colon cancer organoid growth: single agent. The method, then:
FIG. 14 is a two-dimensional dose response of RSPO1 by LY2090314 on inhibiting colon cancer organoid growth (AKPVT), assessed by resazurin based assay.
Viability decrease was assessed using a resazurin based metabolic/proliferation assay.

A further series relates to colon cancer organoids. As to the kind of experiment: LY2090314 together with 5-FU on colon cancer organoids. It counts as cell-based. Conditions: combination with 5-FU. The text has this:
LY2090314 was used together with 5-FU on colon cancer organoids. […] The cell killing or tumor inhibition effect of LY2090314 is additive with 5-FU. Thus, LY2090314 can be added to many of the existing chemotherapy regimens for colon cancer with improved outcomes.

For series [4] the following is noted: in DMSO; cited from earlier work.
The test system of another series is β-catenin. Particulars: 20 nM; cited from earlier work.
Another series concerns GSK3. Conditions: cited from earlier work.
Another series relates to melanoma cell lines. Particulars: cited from earlier work.
The conditions of series [5]: rats; cited from earlier work.
The conditions of series [6]: dogs; cited from earlier work.
For series [7] the following is noted: humans; cited from earlier work.
For series [8] the following is noted: cited from earlier work.
The subject of another series is A375 xenograft. Conditions: 25 mg/kg Q3D, i.v., cited from earlier work.
Series [9] is described as follows: Body weight of treated mice. It counts as in vivo. Conditions: high dose, in one week. The method, then:
In humans, the chemotherapy 5-Fluorouracil is a backbone of colon cancer therapy, however, has significant toxic side effects. Mice tolerate a higher dose of 5-Fluorouracil compared to humans on a per weight per day basis. When a high dose of 5-Fluorouracil is administered to mice, they lose 20% of their total weight in one week (FIG. 12A). […] This is in direct contrast to the improved inhibition of tumor burden and treatment effect identified by using the nanoparticle formulation of LY2090314 (FIGS. 5A-5C).

Another series concerns Wnt signaling. Description: TOP-TdTomato Wnt reporter in wildtype organoids. It counts as cell-based.

The solubility is the dissolved amount per volume that the medium holds. For orientation: half-life means the time needed for the level to fall by half in the phase considered.

Where “and” joins values, the source holds several entries; their conditions need not be identical. Identical values can stand only once. Entries after “also recorded” stand apart in the source; their conditions may differ. Like-named read-outs stand apart in the source and are kept apart here.

As for `O=C1NC(=O)C(c2cnc3ccccn23)=C1c1cn2c3c(cc(F)cc13)CN(C(=O)N1CCCCC1)CC2` [LY2090314], in the series on wildtype colon organoids, the “ranking by on-target vs off-target function in organoids” value is on record as “best drugs in decreasing order of efficacy” and the “growth of wildtype colon organoids” value is given as “potently permits the growth; also recorded: general improvement in growth; also recorded: more potent than SAR502250”. For the same molecule, in series [1], the “growth of organoids that harbor an APC mutation” value is on record as “inhibited the growth”. The “susceptibility of human colon cancer organoids” value in series [2] is “showed susceptibility”. Further, the “combination effect with a Wnt agonist on tumor organoid growth” value in series [3] (LY2090314 combined with RSPO1) was “synergistic effect”. Also, the “cell killing or tumor inhibition effect together with 5-FU” value with colon cancer organoids is listed as “additive”. Moreover, the solubility in [4] is 31 mg/mL and 60.48 mM. Also, in the series on β-catenin, the “induction of Axin2” value is “induction of Axin2” and the “stabilization of β-catenin total protein” value is “time-dependent stabilization”. Besides, in the series with GSK3, the “fold selectivity relative to a large panel of kinases” value is “highly selective towards GSK3”. The “activity in cell lines resistant to PLX4032” value in the series on melanoma cell lines was “remains active”. Besides, the apoptotic cell death entry in the series with melanoma cell lines (irrespective of BRAF mutation status) is “potently induces apoptotic cell death”. For the same molecule, in series [5], the half-life entry was “approximately 0.4 hours”. For the same molecule, the half-life in [6] was about 0.7 h. Further, the half-life in series [7] was 1.8 to 3.4 h. Besides, in series [8] (approximating hepatic blood flow), the clearance result is “high clearance”. In addition, the volume of distribution in series [8] (in vivo) was 1 to 2 L/kg. In addition, in the series with A375 xenograft, the “Axin2 gene expression in vivo” value is on record as “elevates Axin2 gene expression” and the “single agent activity in the A375 xenograft model” value is given as “demonstrates single agent activity”. Further, the “effect on efficacy of DTIC” value in the series on A375 xenograft (with DTIC) is listed as “enhances the efficacy of DTIC”.

Take `COc1ccc2c(NC(=O)Nc3cccc(C(F)(F)F)n3)ccnc2c1` [A-1070722]: in the series on wildtype colon organoids, the “ranking by on-target vs off-target function in organoids” value is given as “best drugs in decreasing order of efficacy”.

Take `O=c1[nH]cc(F)c(=O)[nH]1` [5-Fluorouracil]: the “loss of total weight” value in [9] is 20%.

As for `Cn1c(N2CCO[C@@H](c3ccc(F)cc3)C2)nc(-c2ccncn2)cc1=O` [SAR502250], in the series with wildtype colon organoids, the “ranking by on-target vs off-target function in organoids” value is reported as “best drugs in decreasing order of efficacy” and the “growth of wildtype colon organoids” value was “capacity to grow normal wildtype organoids; also recorded: can independently permit wildtype organoid growth”. The “inhibition of AKPVT colon cancer organoid growth” value in series [3] was “more modest inhibition than LY2090314”. Besides, in the series on Wnt signaling, the “Wnt response, TOP-TdTomato reporter activity” value was “promote a Wnt response”.

Take `CN1CCN(S(=O)(=O)c2ccc(-c3cnc(N)c(C(=O)Nc4cccnc4)n3)cc2)CC1` [AZD2858]: in the series with wildtype colon organoids, the “growth of wildtype colon organoids” value is recorded as “capacity to grow normal wildtype organoids; also recorded: clear low nanomolar capacity to support normal colon organoid growth”. Also, the “Wnt response, TOP-TdTomato reporter activity” value with Wnt signaling was “promote a Wnt response; also recorded: confirmed to be on target Wnt signaling”.

Take `Cc1c[nH]c(-c2cnc(NCCNc3ccc(C#N)cn3)nc2-c2ccc(Cl)cc2Cl)n1` [CHIR 99021]: the “ranking by on-target vs off-target function in organoids” value with wildtype colon organoids is recorded as “best drugs in decreasing order of efficacy”.

B1: RSPO1: concentrated RSPO1, a Wnt agonist (protein, UniProt Q2MKA7 21-263, looked up)
R-spondin-1: SRGIKGKRQRRISAEGSQACAKGCELCSEVNGCLKCSPKLFILLERNDIRQVGVCLPSCPPGYFDARNPDMNKCIKCKIEHCEACFSHNFCTKCKEGLYLHKGRCYPACPEGSSAANGTMECSSPAQCEMSEWSPWGPCSKKQQLCGFRRGSEERTRRVLHAPVGDHAACSDTKETRRCTVRRVPCPEGQKRRKGGQGRRENANRNLARKESKEAGAGSRRRKGQQQQQQQGTVGPLTSAGPA
As to B1, the “reduction in viability of colon cancer organoids” value in series [3] (RSPO1 in the presence of low nanomolar LY2090314) was “more than 40%”. In series [3], the “inhibition of AKPVT colon cancer organoid growth” value is on record as “modest effect”.
